From paper PMC3767334, “Interaction of 5′-Guanosine Monophosphate with Organotin(IV) Moieties: Synthesis, Structural Characterization, and Anti-Inflammatory Activity” (ISRN Organic Chemistry, 2012)

Tests used:
paw edema = experiment: Anti-inflammatory activity (% inhibition in paw edema); assay type: in vivo; conditions: dose 40 mg/kg p.o.; albino rats
From the text: (§1) Solvents were dried and distilled before use. Dimethyltin(IV) dichloride di-n-butyltin(IV) dichloride, diphenyltin(IV) dichloride, trimethyltin(IV) chloride, tri-i-propyltin(IV) chloride, tri-n-butyltin(IV) chloride, triphenyltin(IV) chloride (E. Merck), di-n-octyltin(IV) oxide (Aldrich), and disodium salt of 5′-guanosine monophosphate (Na2(5′-GMP) (Sigma) were used as received. The elemental analysis, namely, melting points, carbon, hydrogen, nitrogen, and tin of the synthesized compounds was determined on the same instruments as reported earlier. Infrared and far-infrared spectra were recorded on a Perkin-Elmer 1600 series FT IR spectrophotometer in the range 4000–400 cm^−1 from KBr discs and 600–200 cm^−1 from CsI discs. ^1H and ^13C spectra were recorded on a Bruker DRX 300 (300 MHz FT NMR) spectrometer at the Central Drug Research Institute, Lucknow, India, using CD3OD as solvent and TMS as the internal standard. ^119Sn NMR spectra were recorded on a Bruker DRX 500 (500 MHz FT NMR) spectrometer at the Institute Instrumentation Centre, IIT, Roorkee, India, using DMSO-d6/CD3OD as solvent and TMS as the internal standard. ^119Sn Mössbauer spectra were recorded on Mössbauer spectrometer model MS-900 according to the procedure reported previously at the Department of Chemistry and Physics, University of The District of Columbia, Washington, DC, USA [21, 22]. Toxicity (LD50: average lethal dose at 50% survival) and anti-inflammatory activity of the studied derivatives were determined according to the procedures reported earlier.

albino rats = assay type: in vivo; conditions: p.o.
From the text: as §1

[1] = Solubility in organic solvents (observation); assay type: physicochemical; conditions: for Solubility in DMSO-d6/CDCl3/CD3OD: NMR solvents DMSO-d6/CDCl3/CD3OD
From the text: All of the synthesized compounds are obtained as white or cream solid in 65–81% yield and stable towards air and moisture. They are insoluble in common organic solvents but sparingly soluble in DMSO. They decomposed at high temperature instead of melting, which indicates their polymeric nature. […] In the entire studied derivatives one molecule of water is also involved.
The chemical shifts of various magnetically nonequivalent carbons of (5′-GMP)^2− have been assigned in the studied derivatives. The C-5′ resonances in organotin(IV) derivatives of (5′-GMP)^2− are shifted towards downfield upon complexation as compared with that of ligand, which indicate the involvement of phosphate group (PO3)^2− in bonding with tin. While all other carbon shifts remains almost unchanged, the ^13C chemical shifts of alkyl and phenyl groups attached to tin are also observed in the expected regions which are consistent with previously reported values. The characteristic resonances in the ^119Sn NMR spectra of some of the studied derivatives, recorded in dimethylsulfoxide-d 6, are also presented in Table 2. […] The ^119Sn chemical shifts in iso-Pr3Sn(IV), Ph2Sn(IV), and Ph3Sn(IV) derivatives of (5′-GMP)^2− are observed at δ −256, −225, and −226 ppm, which are characteristic of the five-coordinated organotin(IV) derivatives.

Molecule	Anti-inflammatory activity % inhibition (paw edema) (paw edema) [%]	Toxicity LD50 (albino rats) [mg/kg]	Solubility in DMSO-d6 [1]	Solubility in DMSO-d6/CDCl3/CD3OD [1]
[Ph2Sn(5′-GMP)·H2O]n	19.22	>400	–	–
[(Me3Sn)2(5′-GMP)·H2O]n	–	–	poor solubility	extremely low solubility
[(i-Pr3Sn)2(5′-GMP)·H2O]n	–	>400	–	–
[Me2Sn(5′-GMP)·H2O]n	18.12	>400	poor solubility	–
CCCCC1C(=O)N(c2ccccc2)N(c2ccccc2)C1=O [Phenyl butazone, reference compound]	34.56	–	–	–
[(n-Bu3Sn)2(5′-GMP)·H2O]n	17.34	>400	poor solubility	–
[n-Bu2Sn(5′-GMP)·H2O]n	16.32	>400	poor solubility	extremely low solubility
[(Ph3Sn)2(5′-GMP)·H2O]n	20.63	>400	–	–
